Source: patent US20240174680A1, “CDK2 INHIBITORS AND METHODS OF USING THE SAME” (Cedilla Therapeutics, Inc., priority 2021, published 2024)

Each compound was assayed against CDK2/Cyclin E1 (Homo sapiens, UniProt P24941) (assay: CDK2/Cyclin E1 Caliper LabChip EZ Reader mobility shift assay). Details: read-out: Caliper Assay (CDK2/CCNE1): IC50.
Assay type: biochemical
Design: purchased Eurofins 14-475
Protocol: Inhibition of CDK2/Cyclin E1 activity in the presence of compounds of the present disclosure was evaluated using a Caliper LabChip® EZ Reader mobility shift assay. In the assay, CDK2/Cyclin E1 (Eurofins, 14-475) catalyzed the phosphorylation of a fluorescently tagged peptide 5-FAM-QSPKKG-CONH2 (PerkinElmer, FL Peptide 18) which induced a difference in capillary electrophoresis mobility. The peptide substrate and product were measured, and the conversion ratio was used to determine the inhibition (as % activity and IC50 values) of CDK2/Cyclin E1. Reactions contained 50 mM HEPES pH 7.5, 10 mM MgCl2, 1 mM EDTA, 2 mM DTT, 0.01% Brij35, 0.5 mg/mL BSA, 0.1% DMSO, 2.5 nM CDK2/Cyclin E1, 100 μM ATP, and 1.5 μM fluorescent peptide substrate.
Dose titrations of inhibitors in 100% DMSO were combined with 3.25 nM CDK2/Cyclin E1 and 130 μM of ATP in reaction buffer. The mixtures were incubated for 30 minutes before the addition of fluorescent peptide substrate to initiate the kinase reaction. The final conditions were 2.5 nM CDK2/Cyclin E1, 100 μM ATP, and 1.5 μM fluorescent peptide. The reactions were stopped after 100 minutes with the addition of EDTA (400 mM final EDTA concentration). The stopped reactions were analyzed on a Caliper LabChip® EZ Reader II. The conversion ratios were normalized to yield % activity, plotted against compound concentration, and fit to a four-parameter equation to determine the IC50 for each compound.
In the case of `CNC(=O)[C@@H](NC(=O)[C@@H]1CN(S(=O)(=O)c2cnn(Cc3ccccc3)c2)CC12CN(C(=O)[C@H]1CC1(C)C)C2)[C@@H](C)OCc1ccccc1` [I-79A], the IC50 is reported as greater than 10000 nM. For `CNC(=O)[C@@H](NC(=O)[C@H]1CN(C(=O)c2cnn(Cc3ccccc3)c2)CC12CN(C(=O)C(C)(C)F)C2)[C@@H](C)OCc1ccccc1` [I-90B], the IC50 was greater than 10000 nM. `C[C@@H]1C[C@H](C)CN(C(=O)[C@@H](NC(=O)C2CN(C(=O)c3cnn(Cc4ccccc4)c3)CC23CN(C(=O)[C@H]2CC2(C)C)C3)[C@@H](C)OCc2ccccc2)C1` (stereo partly drawn) [I-22] showed an IC50 of 10 to 100 nM. Compound `CCC(CC)C(=O)N1CC2(CN(C(=O)c3cnn(Cc4ccccc4)c3)C[C@H]2C(=O)N[C@H](C(=O)NC)[C@@H](C)OCc2ccccc2)C1` [I-74A] has an IC50 of 1000 to 10000 nM. Work on `C[C@@H](OCC1CCCCC1)[C@H](NC(=O)[C@@H]1CN(C(=O)c2cnn(Cc3ccccc3)c2)CC12CN(C(=O)[C@H]1CC1(C)C)C2)C(=O)N1CCC(c2nnco2)CC1` [I-449] yielded an IC50 of no more than 10 nM. With `COC(=O)[C@@H](NC(=O)[C@@H]1CN(C(=O)c2cnn(Cc3ccccc3)c2)CC12CN(C(=O)[C@H]1CC1(C)C)C2)[C@@H](C)OCC1CCCCC1` [I-475] the IC50 was no more than 10 nM. For `C[C@@H](OCc1ccccc1)[C@H](NC(=O)[C@H]1CN(C(=O)c2cnn(Cc3ccccc3)c2)CC12CN(C(=O)[C@H]1CC1(C)C)C2)C(N)=O` [I-176B], the IC50 was 1000 to 10000 nM. For `C[C@@H](OCC1CCC(F)(F)CC1)[C@H](NC(=O)[C@@H]1CN(C(=O)c2cnn(Cc3ccc(F)cc3)c2)CC12CN(C(=O)[C@H]1CC1(C)C)C2)C(=O)N1CCC(F)(F)CC1` [I-164A], the IC50 was no more than 10 nM. For `C[C@@H](OCc1ccccc1)[C@H](NC(=O)[C@@H]1CN(C(=O)c2cnn(Cc3ccccc3)c2)CC12CN(C(=O)[C@H]1CC1(C)C)C2)C(N)=O` [I-176A], the IC50 was 10 to 100 nM. In the case of `CNC(=O)[C@@H](NC(=O)[C@@H]1CN(C(=O)c2cnn(CC(F)(F)F)c2)CC12CN(C(=O)CC1CC1)C2)[C@@H](C)OCc1ccccc1` [I-43A], the IC50 is reported as greater than 10000 nM. Compound `CNC(=O)[C@@H](NC(=O)[C@@H]1CN(C(=O)c2cnn(Cc3ccccc3)c2)CC12CN(C(=O)C(C)(C)C1CC1)C2)[C@@H](C)OCc1ccccc1` [I-276] has an IC50 of 1000 to 10000 nM. `CC(C)O[C@H]1C[C@H](NC(=O)[C@@H]2CN(C(=O)c3cnn(Cc4ccccc4)c3)CC23CN(C(=O)[C@H]2CC2(C)C)C3)C1` [I-233] gave an IC50 greater than 10000 nM. Work on `CC1(C)C[C@@H]1C(=O)N1CC2(CN(C(=O)c3cnn(Cc4ccccc4)c3)C[C@H]2C(=O)NCc2nnc[nH]2)C1` [I-191A] yielded an IC50 greater than 10000 nM. `C[C@@H](OCC1CCCCC1)[C@H](NC(=O)[C@@H]1CN(C(=O)c2cnn(Cc3ccccc3)c2)CC12CN(C(=O)[C@H]1CC1(C)C)C2)C(=O)N1CCC(n2cccn2)CC1` [I-439] was tested, and the IC50 was no more than 10 nM. With `C[C@@H](OCc1ccccc1)[C@H](NC(=O)C1CN(C(=O)c2cnn(Cc3ccccc3)c2)CC12CN(C(=O)[C@H]1CC1(C)C)C2)C(=O)N1CCNCC1` (stereo partly drawn) [I-32] the IC50 was 10 to 100 nM. With `CNC(=O)[C@@H](NC(=O)[C@H]1CN(C(=O)c2n[nH]c3ccccc23)CC12CN(C(=O)[C@H]1CC1(C)C)C2)[C@@H](C)OCc1ccccc1` [I-112B] the IC50 was greater than 10000 nM. For `CNC(=O)[C@@H](CO)NC(=O)C1CN(C(=O)c2cnn(Cc3ccccc3)c2)CC12CN(C(=O)[C@H]1CC1(C)C)C2` (stereo partly drawn) [I-261], the IC50 was greater than 10000 nM. Compound `C[C@@H](OCC12CCC(CC1)CC2)[C@H](NC(=O)[C@@H]1CN(C(=O)c2cncs2)CC12CN(C(=O)[C@H]1CC1(C)C)C2)C(C)(C)O` [I-304] has an IC50 of no more than 10 nM. Work on `Cc1nc(C)c(C(=O)N2C[C@@H](C(=O)N[C@H](C(=O)N3CCC4(CC3)COC4)[C@@H](C)OCC34CCC(CC3)OC4)C3(C2)CN(C(=O)[C@H]2CC2(C)C)C3)s1` [I-343] yielded an IC50 of no more than 10 nM. With `CC1(C)C[C@@H]1C(=O)N1CC2(CN(C(=O)c3cncs3)C[C@H]2C(=O)N[C@@H](COCC2CCCCC2)C(=O)N2CCCCC2)C1` [I-286] the IC50 was 10 to 100 nM. `C[C@@H](OCC1CCC(F)(F)CC1)[C@@H](COC1CCC(F)(F)CC1)NC(=O)[C@@H]1CN(C(=O)c2cncs2)CC12CN(C(=O)[C@H]1CC1(C)C)C2` [I-315] was tested, and the IC50 was no more than 10 nM.
